Results on 3 molecules are retold here after US20260027117A1, “METHODS OF TREATING SMALL CELL LUNG CANCER” (Debiopharm International S.A., priority 2022, published 2026).

pIC50: −log10 of the molar value.

Data set [1] deals with NCI-H446 SCLC tumor cells. In words: NCI-H446 CDX model, tumor growth inhibition. The class given is in vivo, Balb/c nude mice. As to conditions: 16 day cycle; for TGI effects compared to vehicle: monotherapy, Compound of formula (I) 30 mg/kg QD 3 consecutive days a week P.O., carboplatin 50 mg/kg QW I.V. The procedure: (§1) Female Balb/c nude mice were inoculated subcutaneously with 5×10^6 NCI-H446 SCLC tumor cells. Animals were randomized when tumor volume reached approximately 100-150 mm^3. Animals were treated with vehicle (0.5% methycellulose, 1% Tween 80 P.O. and saline I.V.), Compound of formula (I) formulated as a suspension in 0.5% methycellulose and 1% Tween 80 (30 mg/kg QD, 3 consecutive days a week, P.O.), or Carboplatin (50 mg/kg QW, I.V.) administered over a 16 day cycle, either alone or in combination (5 animals per group). In combination arms, Compound of formula (I) was administered 2 hours prior to chemotherapy. Tumor growth was monitored twice weekly by caliper measurement and tumor volume calculated using the equation V=(L×W×W)/2, where V is tumor volume, L is tumor length (the longest tumor dimension) and W is tumor width (the longest tumor dimension perpendicular to L). During routine monitoring, the animals were checked for any effects of tumor growth and treatments on behavior such as mobility, food and water consumption, body weight gain/loss 3 times a week, eye/hair matting and any other abnormalities. Mortality and observed clinical signs were recorded for individual animals.

A further data set has as its system SCLC. Particulars: SCLC patients; in combination with olaparib, or with carboplatin in platinum-refractory SCLC (BALTIC study, Arm B, NCT02937818); preliminary data; cited from earlier work.
A further data set concerns NCI-H446 tumor cells. The data set is described as follows: In vitro synergy, CellTiter-Glo viability assay with Bliss synergy method. The class given is cell-based. Particulars: in combination with carboplatin, 72 hours, 9 doses, 0-10 uM and carboplatin 0-300 uM, Bliss score >5 demonstrates synergy. Here is the method: NCI-H446 tumor cells were plated at a density of 5000 cells/90 ul in 96 well plates. Cells were treated with Compound of formula (I) and/or carboplatin, either alone or in combination with 9 different doses (3-fold serial dilutions starting at 10 uM for Compound of formula (I) and 300 uM for carboplatin) for 72 hours.
A general note: Cellular ATP, detected with luciferase, serves as a proxy for viable cell number.

The subject of data set [2] is NCI-H1048 SCLC tumor cells. In words: NCI-H1048 cell line-derived xenograft (CDX) model, tumor growth inhibition. Type of data set: in vivo, Balb/c nude mice. The procedure:
(§2) Female Balb/c nude mice were inoculated subcutaneously with 5×10^6 NCI-H1048 SCLC tumor cells. Animals were randomized when tumor volume reached approximately 100-150 mm^3. Animals were treated with vehicle (0.5% methycellulose, 1% Tween 80 P.O. and saline I.V.), Compound of formula (I) formulated as a suspension in 0.5% methycellulose and 1% Tween 80 (30 mg/kg QD, P.O.), Carboplatin (50 mg/kg QW, I.V.) or etoposide (25 mg/kg or 12.5 mg/kg QW, I.P.), administered over a 21 day cycle, either alone or in combination (8 animals per group in double combination studies; 10 animals per group in triple combination study). In combination arms, Compound of formula (I) was administered 2 hours prior to chemotherapy. Tumor growth was monitored twice weekly by caliper measurement and tumor volume calculated using the equation V=(L×W×W)/2, where V is tumor volume, L is tumor length (the longest tumor dimension) and W is tumor width (the longest tumor dimension perpendicular to L). During routine monitoring, the animals were checked for any effects of tumor growth and treatments on behavior such as mobility, food and water consumption, body weight gain/loss 3 times a week, eye/hair matting and any other abnormalities. Mortality and observed clinical signs were recorded for individual animals.

Data set [3] can be described thus: NCI-H1048 CDX model, tolerability (body weight). The class given is in vivo. Here is the method:
as §2

Data set [4] is described as follows: NCI-H446 CDX model, tolerability (body weight). The class given is in vivo. As to conditions: in combination with carboplatin 50 mg/kg QW I.V.; 16 day cycle. The procedure: as §1
The subject of a further data set is SC6 PDX tumors. The data set is described as follows: SC6 patient derived xenograft (PDX) model, tumor growth inhibition. Type of data set: in vivo, athymic nude mice. Particulars: for tumor growth inhibition (TGI): 30 mg/kg QD P.O. in combination with etoposide 6 mg/kg QD [3 d on/4 d off] I.P., compared to vehicle control. The procedure:
(§3) Female athymic nude mice were inoculated subcutaneously with tumor fragments from SC6 PDX tumors. Animals were randomized when tumor volume reached approximately 60-200 mm^3. Animals were treated with vehicle (0.5% methycellulose, 1% Tween 80 P.O. and saline I.V.), Compound of formula (I) formulated as a suspension in 0.5% methycellulose and 1% Tween 80 (30 mg/kg QD, P.O.), Carboplatin (25 mg/kg QW, I.P.) or etoposide (6 mg/kg QD [3 d on/4 d off], I.P.), administered over a 21 day cycle either alone or in combination (7 animals per group). In combination arms, Compound of formula (I) was administered 2 hours prior to chemotherapy. Tumor growth was monitored twice weekly by caliper measurement and tumor volume calculated using the equation V=(L×W×W)/2, where V is tumor volume, L is tumor length (the longest tumor dimension) and W is tumor width (the longest tumor dimension perpendicular to L). During routine monitoring, the animals were checked for any effects of tumor growth and treatments on behavior such as mobility, food and water consumption, body weight gain/loss 3 times a week, eye/hair matting and any other abnormalities. Mortality and observed clinical signs were recorded for individual animals.
A general note: Xenograft models place foreign cells or tissue in a host animal.

Data set [5] can be described thus: SC6 PDX model, tolerability (body weight). The class given is in vivo. Particulars: in combination with etoposide. Here is the method:
as §3

Another data set has as its system SCLC organoids. The data set is described as follows: SCLC organoid models, Cell Titer Glow 3D viability and Bliss synergy. Type of data set: cell-based. Particulars: for bliss synergy score: vs carboplatin/etoposide (5:1 ratio) as a single treatment. The procedure:
SCLC organoids from 16 models were prepared as follows: SCLC organoid models were expanded in 6-well plates, each well containing 2 ml of organoid medium. On the day of organoid seeding 20 μL 100× Dispase solution was added to each well and the plates were incubated at 37° C. for 30 min. Organoids were passed through a pre-wet 100 μm filter into a 50 ml plastic tube and subsequently further filtered through a wet 20 μm filter. Organoids were resuspended in culture media and counted. Matrigel was added to a final concentration of 5% v/v and 40 μL of cell suspensions add to each well of a 384-well plate by Multidrop dispenser.
The treatments tested for each organoid model were as follows: • (a) Compound of Formula (I) in monotherapy, • (b) carboplatin and etoposide (in a 5:1 ratio, considered as a single treatment), or • (c) Compound of Formula (I) in combination with carboplatin and etoposide, using the following concentrations in a matrix format: compound of Formula (I) in 6 concentrations from 0.047 to 1.5 μM, carboplatin in 6 concentrations from 0.156 to 5 μM, and etoposide in 6 concentrations from 0.031 to 1 μM)). Thus, for the carboplatin and etoposide treatment (considered as a single treatment in this experiment), the lowest concentration of carboplatin was combined with the lowest concentration of etoposide in a 5:1 ratio, the 2nd lowest doses of both reagents were combined, etc., while maintaining the 5:1 ratio. Then, each of these combinations were used either alone (carboplatin/etoposide treatment) or in further combination with each concentration of Compound of Formula (I).
The screening plates were incubated with treatments for 5 days. All treatments were performed in technical triplicates and biological replicates.
Plates were assayed for luminescent Cell Titer Glow (CTG) signal by adding 40 μL of CTG 3D per well by Multidrop dispenser, mixing for 5 mins and incubating for 30 min at room temperature in the dark. Luminescence signal was then measured on Envision plate reader.
The surviving and inhibition rates were calculated as follows for each treatment: […]
For synergy calculations and creation of heatmaps, the Bliss independence model was used on synergyfinder.org (Zheng, S.; Wang, W.; Aldahdooh, J.; Malyutina, A.; Shadbahr, T.; Tanoli Z; Pessia, A.; Jing, T. SynergyFinder Plus: Toward Better Interpretation and Annotation of Drug Combination Screening Datasets. Genomics, Proteomics & Bioinformatics 2022, in press. doi:10.1016/j.gpb.2022.01.004) considering carboplatin/etoposide as a single treatment vs Compound of Formula (I). 9 out of 16 models had bliss synergy scores >5 between Compound of Formula (I) and the carboplatin/etoposide treatment. […]

The mark [6] stands for this setting: triple combination with carboplatin and etoposide.

Take `N.N.O=C([O-])C1(C(=O)[O-])CCC1.[Pt+2]` [carboplatin, reference compound]: the “TGI effects compared to vehicle” value in [1] is “no significant TGI effects”.
As for `C=CCn1c(=O)c2cnc(Nc3ccc(N4CCN(C)CC4)cc3)nc2n1-c1cccc(C(C)(C)O)n1` [adavosertib], in the data set on SCLC, the antitumor activity entry was “limited antitumor activity”.
Regarding `Cc1cc(Nc2ncc3c(n2)N(C)CN(c2c(Cl)cccc2Cl)C3=O)ccc1C1CCN(C)CC1` [Compound of formula (I)], the “synergistic antitumor activity (Bliss synergy)” value in the data set on NCI-H446 tumor cells was “strong synergistic antitumor activity”. Besides, the “tumor growth inhibition (TGI)” value is on record as “about 68%” in data set [2] (30 mg/kg QD P.O. in combination with carboplatin 50 mg/kg QW I.V., 21 day cycle, vs vehicle controls, p=0.0026); approximately 78% in data set [2] (30 mg/kg QD P.O. in combination with etoposide (25 mg/kg or 12.5 mg/kg QW I.P.), 21 day cycle, vs vehicle controls, p=0.00015); “up to 54%” in [2] (monotherapy 30 mg/kg QD P.O., 21 day cycle, vs vehicle, p=0.016); 44% in [2] (triple combination with carboplatin (50 mg/kg) and etoposide (12.5 mg/kg), compared to carboplatin and etoposide combination, p=0.0043); 72% in data set [2] (triple combination with carboplatin (50 mg/kg) and etoposide (12.5 mg/kg), compared to vehicle controls, p<0.0001); 67% in data set [1] (30 mg/kg QD 3 consecutive days a week P.O. in combination with carboplatin 50 mg/kg QW I.V., compared to vehicle, p=0.028). Besides, the “tumor growth inhibition (TGI)” value in the data set on SC6 PDX tumors (day 7) is reported as 34%; in the data set on SC6 PDX tumors (day 11, p=0.012), 61%. Besides, the tumor response result in data set [2] (triple combination with carboplatin and etoposide, compared to carboplatin and etoposide treatments alone or to the double combination) is “significantly improved tumor response”. For the same molecule, the body weight loss result in data set [3] (in combination with carboplatin 50 mg/kg QW I.V.) is reported as “No significant body weight loss”; in [3] (in combination with etoposide QW I.P.) it was “No significant body weight loss”; in data set [3] (monotherapy 30 mg/kg QD P.O., 21 day cycle) it was “No significant body weight loss”; in data set [3] (setting [6]), “No significant body weight loss”; in data set [4], “No significant body weight loss”; in data set [5] (immediately following treatment, all animals recovered quickly), “some transient body weight losses”. The tolerability entry in [3] (setting [6]) and in data set [5] was “well tolerated” in each case. Besides, the “TGI effects compared to vehicle” value in data set [1] is “no significant TGI effects”. Also, in the data set on SC6 PDX tumors (in combination with etoposide, end of treatment (21 days), 7 animals per group), the “mice remaining below the maximum tumor volume ethical criteria at end of treatment” value is 4/7. Moreover, in the data set on SCLC organoids (120 h, monotherapy, 5 days, in 12 out of 16 SCLC organoids), the pIC50 is more than 5.82. In addition, the inhibition at 1.5 µM with SCLC organoids (monotherapy, at 1.5 uM (highest dose tested), in 12 out of 16 SCLC organoids, read-out: maximum inhibition rate (cell death rate)) was more than 60%. Also, the bliss synergy score with SCLC organoids (5 days, in 5 of these models (FIG. 8), highly significant) is recorded as more than 10; with SCLC organoids (5 days, in 9 out of 16 SCLC organoid models), more than 5.

In general, pIC50 refers to the negative decadic logarithm of the IC50, by convention in mol/L. The inhibition is the change of the read-out against control, counted positive when it falls.
